According to paper PMC11278568, “Implementation of Spore Display in Paenibacillus polymyxa with Different Hydrolytic Enzymes” (Microorganisms, 2024):

Experiments:
[1] = p-nitrophenol release, […] nm, […] h; format: cell-based, Paenibacillus polymyxa; conditions: enzyme displayed on spores (immobilised), OD600 1; 1 mM substrate; 50 mM Tris-HCl pH 7.5; 4-70 °C; side activity of the synthase
[2] = target: T1, Lip3 (Paenibacillus polymyxa, UniProt A0ABX2ZB39); assay: p-nitrophenol release, […] nm, […] h; format: cell-based; conditions: enzyme displayed on spores (immobilised), OD600 1; 1 mM substrate; 50 mM Tris-HCl pH 7.5; 4-70 °C
T1 construct: gene A7312_04500; fused via GGGGGSGGGGG linker to P. polymyxa CotE spore-coat anchor; gene amplified from DSM 365 genome (CP141264); printed NF024107.3 is a family model
T1 sequence (A0ABX2ZB39 1-335): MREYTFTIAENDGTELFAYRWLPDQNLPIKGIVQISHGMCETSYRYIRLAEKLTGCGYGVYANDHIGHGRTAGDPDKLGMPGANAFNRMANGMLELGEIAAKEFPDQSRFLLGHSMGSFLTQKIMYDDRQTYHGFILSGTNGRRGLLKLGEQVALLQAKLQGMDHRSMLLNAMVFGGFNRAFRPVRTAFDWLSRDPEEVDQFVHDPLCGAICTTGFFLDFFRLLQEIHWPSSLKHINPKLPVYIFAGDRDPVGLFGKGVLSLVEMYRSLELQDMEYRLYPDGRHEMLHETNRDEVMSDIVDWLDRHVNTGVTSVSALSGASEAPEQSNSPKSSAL

## CCCCCCCC(=O)Oc1ccc([N+](=O)[O-])cc1 [C8, 4-Nitrophenyl-octanoate]
[1]
  p-nitrophenol release, 410 nm, 1 h: this enzyme showed hydrolytic activity for p-nitrophenyl caprylate (pNPC, C8)
[2]
  p-nitrophenol release, 410 nm, 1 h: The displayed Lip3 showed higher hydrolysis activity with rising temperature
